The source of these data is patent publication US20250375437A1, “METHODS FOR IMPROVING COGNITIVE FUNCTION” (priority 2024, published 2025).

Molecules are shown by their SMILES.

Data set [1] deals with patients with bipolar II disorder. The experiment in a line: Continuous Performance Test (Conner's CPT II), sustained attention. It counts as in vivo, human. The following applies: 12 weeks versus baseline, result in words. An excerpt:
The present invention recruited patients diagnosed with bipolar II disorder (BD-II). The patients were diagnosed by psychiatrists using the improved Chinese version of the Schedule of Affective Disorder and Schizophrenia-Life Time (SADS-L) with good inter-rater reliability and the Diagnostic and Statistical Manual of Mental Disorders, Fourth Edition, Text Revision (DSM-IV-TR) to confirm that the patient meets the integration points of bipolar II disorder in the DSM-IV-TR.
The purpose of the test of the present invention was to test whether dextromethorphan (DM) and sodium valproate (trade name: Depakine) could improve the cognitive function of patients. Therefore, the patients with bipolar II disorder in the present invention were divided into two groups: one group was the patients taking dextromethorphan and sodium valproate together (BDDM), and the other group was the patients taking sodium valproate and placebo (BDPl). Before the patients of the two group took the drug, the present invention first used the following evaluation test to perform a basic evaluation of the patients of the two groups.
The present invention used the computer version of Conner's CPT II 20 which was used to detect the sustained attention of the patients. In the reliability of Conner's CPT II, the split-half reliability ranged from 0.66 to 0.95, and the retest reliability after three months was […]. […]

A short description of data set [2]: Drug concentration in the plasma of the patients after the end of the treatment. The following applies: human, in vivo, after 12 weeks of 1 to 30 mg dextromethorphan per day. The protocol:
Both groups were treated with drug. The course of treatment for the group taking dextromethorphan and sodium valproate (BDDM group) was 1 to 30 mg of dextromethorphan and 500 to 2500 mg of sodium valproate per day for 12 weeks. The course of treatment for the group taking sodium valproate and placebo (BDPl group) was 500-2500 mg of sodium valproate and placebo per day for 12 weeks. After the end of the treatment, the concentrations of dextromethorphan in the plasma of the patients were about 10-50 ng/ml (0.05-0.2 μM), and the concentrations of sodium valproate in the plasma were about 50-100 μg/dl.

As for `COc1ccc2c(c1)[C@]13CCCC[C@@H]1[C@H](C2)N(C)CC3` [dextromethorphan], the “sustained attention (scores of CPT) after the end of the course of treatment” value in data set [1] is reported as “improvement in sustained attention was due to the efficacy of dextromethorphan”. The concentration at 12 weeks in data set [2] fell in the range of 10 to 50 ng/mL; in data set [2] (value in brackets) it was 50 to 200 nM.
